Experimental data from ChEMBL document CHEMBL1201862, “PubChem BioAssay data set” (2004).
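All cell lines were grown in 96-well plates and treated with compound for 48 hours. GI50: concentration for 50% inhibition of growth.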 The source made the active and inactive calls. No stated cut-off is given here; in the data, active = GI50 up to about 1.1 µM and inactive = higher.

Legend:
Experiment in all cases: NCI-60 cell line screen, 48 h
[1] = tested on: BT-549
[2] = tested on: DU-145
[3] = tested on: EKVX
[4] = tested on: HCT-116
[5] = tested on: K562
[6] = tested on: NCI-H460
[7] = tested on: NCI-H522
[8] = tested on: NCI/ADR-RES
[9] = tested on: OVCAR-5
[10] = tested on: OVCAR-8
[11] = tested on: SF-268
[12] = tested on: SF-539
[13] = tested on: SK-MEL-28
[14] = tested on: SK-MEL-5
[15] = tested on: SN12C
[16] = tested on: SNB-19
[17] = tested on: SW-620
[18] = tested on: U-251
[19] = tested on: UACC-257
[20] = tested on: UACC-62

Measured: GI50

CCCCCC(=O)Nc1[nH]nnc1C(N)=O
inactive: [1] > 100 µM | [2] > 100 µM | [3] > 100 µM | [4] > 100 µM | [5] > 100 µM | [6] > 100 µM | [7] > 100 µM | [8] > 100 µM | [9] > 100 µM | [10] > 100 µM | [11] > 100 µM | [12] > 100 µM | [13] > 100 µM | [14] > 100 µM | [15] > 100 µM | [16] > 100 µM | [17] > 100 µM | [18] > 100 µM | [19] > 100 µM | [20] > 100 µM

C[n+]1c2ccc(Cl)cc2nc2cc(-c3ccccc3)ccc21
inactive: [1] 11.1 µM | [2] 22.5 µM | [3] 10.8 µM | [4] 16.7 µM | [5] 7.13 µM | [6] 14.9 µM | [7] 16 µM | [8] 33.2 µM | [9] 24.1 µM | [10] 3.67 µM | [11] 14.7 µM | [12] 15.8 µM | [13] 20.1 µM | [14] 6.68 µM | [15] 4.24 µM | [16] 5.12 µM | [17] 4.7 µM | [18] 5.21 µM | [19] 15.6 µM | [20] 18.4 µM
